The values that follow come from patent publication US4650907A, “Nonaromatic fluoroallylamine MAO inhibitors” (Merrell Dow Pharmaceuticals Inc., priority 1985, dated 1987).

Each structure is given as a SMILES string.

The subject of series [1] is MAO. To be noted: selective at lower dosages, less selective at higher dosages; cited from earlier work.
The target of series [2] is T1, MAO-A (Rattus norvegicus, UniProt P21396).
T1 construct: preparing mitochondria from rat brain by homogenation in phosphate buffer; from tissue; host or cells: rat brain mitochondria
T1 sequence (P21396 1-526): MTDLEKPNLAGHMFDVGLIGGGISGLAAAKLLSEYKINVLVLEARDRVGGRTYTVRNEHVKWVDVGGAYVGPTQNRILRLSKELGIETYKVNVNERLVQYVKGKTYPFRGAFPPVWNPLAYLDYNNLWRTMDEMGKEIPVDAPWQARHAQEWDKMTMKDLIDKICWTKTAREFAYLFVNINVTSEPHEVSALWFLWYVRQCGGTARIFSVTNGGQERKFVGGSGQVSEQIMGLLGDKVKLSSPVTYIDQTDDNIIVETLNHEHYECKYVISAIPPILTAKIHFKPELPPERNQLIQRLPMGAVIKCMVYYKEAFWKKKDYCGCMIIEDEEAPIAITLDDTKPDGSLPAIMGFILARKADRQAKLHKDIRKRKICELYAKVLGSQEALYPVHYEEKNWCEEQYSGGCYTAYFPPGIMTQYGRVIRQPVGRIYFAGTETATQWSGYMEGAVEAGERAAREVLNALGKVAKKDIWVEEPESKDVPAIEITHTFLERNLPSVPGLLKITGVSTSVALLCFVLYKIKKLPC
Put plainly: Inhibition of MAO - in vitro, partially purified mitochondria from rat brain, 14C 5-hydroxytryptamine (5-HT) substrate (MAO-A). The format is biochemical. To be noted: substrate 14C 5-hydroxytryptamine (5HT), preferred substrate for MAO-A. From the text:
(§1) The ability of a compound of structure 1 to inhibit MAO can be determined in vitro by the method of A. Christmas et al., Br. J. Pharmacol. 45, 490 (1972) in partially purified mitochondria from rat brain using ^14 C otyramine or ^14 C phenethylamine and ^14 C 5-HT as the substrate. The MAO inhibitory activity of a compound is expressed as the "IC50 " value, which is the molar concentration required to produce 50% inhibition of the enzyme. The IC50 values for certain compounds of structure 1 were determined using the above-described method, and the results are set forth in Table I.
(§2) The selectivity of a compound of structure 1 with respect to inhibition of MAO-A and MAO-B can be determined by preparing mitochondria from rat brain by homogenation in phosphate buffer (0.1 M, pH 7.2) followed by differential centrifugation. The mitochondria are suspended in the same buffer, the test compound is added at the desired concentration, and the system is incubated. At different time intervals, aliquots are taken and MAO activity is measured using ^14 C 5-hydroxytryptamine (5HT; a preferred substrate for MAO-A) or 14C -phenethylamine (PEA; a preferred substrate for MAO-B) as the substrates. The selectivity is expressed as the ratio of the inhibitory activity against MAO-B versus the inhibitory activity against MAO-A. (Zreika, McDonald, Bey, Palfreyman, J. Neurochem., 448-454 (1984)).

Series [3] concerns the target T2, MAO-B (Rattus norvegicus, UniProt P19643).
T2 construct: preparing mitochondria from rat brain by homogenation in phosphate buffer; from tissue; host or cells: rat brain mitochondria
T2 sequence (P19643 1-520): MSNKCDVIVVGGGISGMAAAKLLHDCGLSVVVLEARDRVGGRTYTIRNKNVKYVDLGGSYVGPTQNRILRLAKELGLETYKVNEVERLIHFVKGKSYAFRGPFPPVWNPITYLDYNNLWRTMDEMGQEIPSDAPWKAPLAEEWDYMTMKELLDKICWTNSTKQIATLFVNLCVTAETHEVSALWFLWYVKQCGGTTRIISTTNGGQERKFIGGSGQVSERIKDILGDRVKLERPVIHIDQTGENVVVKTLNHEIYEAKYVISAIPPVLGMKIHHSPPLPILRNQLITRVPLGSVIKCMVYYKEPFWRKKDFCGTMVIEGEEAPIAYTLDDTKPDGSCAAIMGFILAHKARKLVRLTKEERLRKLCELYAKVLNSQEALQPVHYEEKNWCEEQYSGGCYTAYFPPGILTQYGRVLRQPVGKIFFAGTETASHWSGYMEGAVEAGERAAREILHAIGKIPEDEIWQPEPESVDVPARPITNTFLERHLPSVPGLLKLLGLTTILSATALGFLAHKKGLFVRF
The series can be described thus: Inhibition of MAO - in vitro, partially purified mitochondria from rat brain, 14C-phenethylamine (PEA) substrate (MAO-B). In kind it is biochemical. To be noted: substrate 14C-phenethylamine (PEA), preferred substrate for MAO-B.
Description: as §1, §2

Series [4] has as its target T2, MAO-B. The series can be described thus: Inhibition of MAO - ex vivo, brain mitochondria of orally dosed rats, 14C phenethylamine substrate (MAO-B). The format is in vivo. To be noted: po, brain mitochondrial fraction. On the procedure: (§3) The test compound is administered orally (po) to rats and the animals are killed at various times after treatment. The brain is removed and a mitochondrial fraction, described in Example 12 is prepared. MAO activity is determined using ^14 C p-tyramine, as the substrate. Selectivity can be determined by repeating the above-described test using either ^14 C 5-hydroxytryptamine (for MAO-A) or ^14 C phenethylamine (for MAO-B) as the substrate for determining the % inhibition.

Series [5] deals with T1, MAO-A. The series can be described thus: Inhibition of MAO - ex vivo, brain mitochondria of orally dosed rats, 14C 5-hydroxytryptamine substrate (MAO-A). The format is in vivo. As to conditions: po, brain mitochondrial fraction. On the procedure: as §3
The conditions of series [6]: cited from earlier work; for clinical antidepressant effect: man.

Turning to `N[C@@H]1C[C@H]1c1ccccc1` (relative stereo) [tranylcypromine], the “preferential inhibition of MAO (in words)” value (shortened to “preferential inhibition”) in series [1] is listed as “not preferential in their action upon MAO”.

Turning to `CCCC/C(=C\F)CN` [(E)-2-Butyl-3-fluoroallylamine], the values for the IC50 in series [2] and in series [3] were 110 nM and 2 nM, respectively.

With `CCCCCCC/C(=C\F)CN` [(E)-2-Heptyl-3-fluoroallylamine], the IC50 in series [2] was 60 nM; in series [3], 4.5 nM.

As to `CCCCCC/C(=C\F)CN` [(E)-2-Hexyl-3-fluoroallylamine], the results for the IC50 in series [2] and in series [3] were 170 nM and 7 nM, respectively.

In the case of `CC(C)C/C(=C\F)CN` [(E)-2-Isobutyl-3-fluoroallylamine], the ED50 is 0.05 mg/kg in series [4] and 0.8 mg/kg in series [5]. Also, the 50% inhibitory concentration (IC50) in series [2] is 2300 nM; in series [3], 30 nM.

For the compound `CC(C)/C(=C\F)CN` [(E)-2-Isopropyl-3-fluoroallylamine], the IC50 is 170000 nM in series [2] and 2500 nM in series [3].

As for `CCCCCCCCCCC/C(=C\F)CN` [(E)-2-Undecyl-3-fluoroallylamine], the IC50 in series [2] was 750 nM; in series [3] it was 500 nM.

As to `CCC(C)/C(=C\F)CN` (centres unmarked) [(E)-2-sec-Butyl-3-fluoroallylamine], the IC50 in series [2] was 170000 nM; in series [3], 7000 nM.

Take `C#CCN(C)[C@H](C)Cc1ccccc1` [L-deprenyl]: in series [6] (low dosages where preferential inhibition of MAO-B occurs), the cheese effect result was “not observed”. Also, the clinical antidepressant effect result in series [6] is recorded as “clinically effective antidepressant agents”. In series [6] (treatment of Parkinson's disease), the “potentiation of L-DOPA in Parkinson's disease” value is “potentiate L-DOPA for the treatment of Parkinson's disease without producing peripheral side effects”. Further, in series [1], the “preferential inhibition” value was “MAO-B is preferentially inhibited”.

Take `C#CCN(C)CCCOc1ccc(Cl)cc1Cl` [clorgyline]: the clinical antidepressant effect result in series [6] is on record as “clinically effective antidepressant agents”.

As for `Cc1cc(C(=O)NNCc2ccccc2)no1` [isocarboxazid], in series [1], the “preferential inhibition” value is “not preferential in their action upon MAO”.

Turning to `C#CCN(C)Cc1ccccc1` [pargyline], in series [6], the clinical antidepressant effect result was “clinically effective antidepressant agents”. Moreover, in series [1], the “preferential inhibition” value is listed as “MAO-B is preferentially inhibited”.

In the case of `NNCCc1ccccc1` [phenelzine], the “preferential inhibition” value in series [1] is recorded as “not preferential in their action upon MAO”.

Broadly, the IC50 is the concentration that inhibits the measured activity by half. Low readings indicate higher potency, high ones lower potency. The term ED50 denotes the dose at which the effect has come halfway, by size or by number of responders. Read a low ED50 as greater potency.
